Experimental data published in patent publication US5434256A, “Diamine platinum complexes as antitumor agents” (priority 1994, dated 1995).

Experiments:
M5076 reticulosarcoma = experiment: In vivo antitumor activity, M5076 reticulosarcoma (Example 6, Table 11); design: species or system male BDF1 mice; conditions: M5076 s.c.; drug i.p. days 5, 9, 13, 17; optimal dose (mg/kg/inj): 12: 25; Cisplatin: 5
Procedure: (§1) Cisplatin-sensitive L1210/0 or cisplatin-resistant L1210/DDP cells (1×10^5 cells/mouse) were injected intraperitoneally in male BDF1 mice on day 0, and the drug, in an aqueous medium, administered intraperitoneally at dose levels ranging from 1.56 to 200 mg/kg on days 1, 5 and 9. The median life spans of control (C) and treated (T) animals were determined, and the percent T/C at the optimal dose calculated as an indicator of antitumor efficacy. The complexes were also evaluated against the M5076 reticulosarcoma. […]. The tumor volumes were measured periodically and efficacy at the optimal dose reported as tumor growth delay (TGD), which is defined as the time difference in days for the tumor in control and treated mice to reach a specified volume.
(§2) BDF1 mice inoculated i.p. with 10^5 L1210 Leukemia cells on day 0 wer
(§3) administered the drug on days 1, 5, and 9. BDF1 mice inoculated s.c. with
(§4) 10^7 M5076 cells on day 0 received the drug on days 5, 9, 13, and 17.
(§5) % T/C = [(median survival time of treated)/(median survival time of
(§6) control)] × 100. TGD = tumor growth delay.

Murine Leukemia L1210/0 = experiment: In vivo antitumor activity against murine leukemia L1210/0 (Example 3, Table 5); design: species or system BDF1 mice; conditions: for % T/C (mean survival time of treated/mean survival time of control) × 100: at optimal dose/MTD
Procedure: (§7) Each of the platinum complexes was evaluated in vivo against L1210/0, L1210/DDP, L1210/DACH and M5076 cells at several dose levels. […] The data at optimal doses are reproduced in Tables 4-7 along with data for the cyclobutanedicarboxylato, aquasulfato, methylmalonato and tartronato analogs (compounds 1-4 in Table 1).
BDF1 mice inoculated i.p. with 10^5 L1210 Leukemiacells on day 0 and
(§8) drug administered i.p. on days 1, 5, and 9. MTD = Maximum Tolerated Dose
(§9) (mg/kg/injection), % T/C = (mean survival time of treated/mean survival
time of control) × 100. Figures in parenthesis indicate long term

L1210/0 cells [1] = experiment: Modified MTT cytotoxicity assay, murine leukemia L1210/0 (Example 2, Table 3); format: cell-based; conditions: for IC50: L1210/0, MTT, continuous exposure 5 days; for effectiveness against murine versus human cells (in words): L1210/0 versus A2780
Murine Leukemia 1210/DDP = experiment: In vivo antitumor activity against murine leukemia L1210/DDP (Example 3, Table 7); design: species or system BDF1 mice; conditions: for MTD (Maximum Tolerated Dose) / % T/C (mean survival time of treated/mean survival time of control) × 100: L1210/DDP i.p., BDF1 mice, drug i.p. days 1, 5, 9; for % T/C (mean survival time of treated/mean survival time of control) × 100: at optimal dose/MTD
Procedure: as §7
(§10) BDF1 mice inoculated i.p. with 10^5 L1210 Leukemia cells on day 0 and
drug administed i.p. on days 1, 5, and 9. MTD = Maximum Tolerated Dose
as §9
(§11) time of control) × 100. Figures in parenthesis indicated long term

[2] = tested on: Murine Leukemia L1210/DACH; experiment: In vivo antitumor activity against murine leukemia L1210/DACH (Example 3, Table 6); design: species or system BDF1 mice; conditions: for MTD (Maximum Tolerated Dose) / % T/C (mean survival time of treated/mean survival time of control) × 100: L1210/DACH i.p., BDF1 mice, drug i.p. days 1, 5, 9; for % T/C (mean survival time of treated/mean survival time of control) × 100: at optimal dose/MTD
Procedure: as §7, §10, §8, §9, §11

L1210/0 cells [3] = experiment: MTT cytotoxicity, L1210/0 (Example 5, Table 10); format: cell-based, murine; conditions: 72 hr (3 days) continuous exposure
M5076 Tumor Model = experiment: In vivo antitumor activity against M5076 tumor model (Example 3, Table 4); design: species or system BDF1 mice; TGD (Tumor Growth Delay): unit not given beside the values; conditions: for MTD (Maximum Tolerated Dose) / TGD (Tumor Growth Delay): M5076 s.c., BDF1 mice, i.p. days 7, 14, 21, 28; for TGD (Tumor Growth Delay): at optimal dose/MTD
Procedure: as §7
BDF1 mice inoculated s.c. with 10' M5076 cells on day 0 and drug
administered i.p on days 7, 14, 21, and 28. MTD = Maximum Tolerated Dose
(mg/kg/injection), TGD = Tumor Growth Delay

A2780 cells = experiment: Modified MTT cytotoxicity assay, human ovarian A2780 (Example 2, Table 3); format: cell-based; conditions: continuous exposure (5 days in table footnote; 7 days in text)
L1210/DACH cells = experiment: MTT cytotoxicity, tetraplatin-resistant L1210/DACH (Example 5, Table 10); format: cell-based, murine; conditions: 72 hr (3 days) continuous exposure
L1210/0 cells [4] = experiment: In vivo antitumor activity, L1210/0 (Example 6, Table 11); design: species or system male BDF1 mice; conditions: for % T/C at optimal dose: L1210/0 i.p., drug i.p. days 1, 5, 9, median survival, optimal dose (mg/kg/inj): 12, 13, 14: 25, 15: 12.5, Cisplatin: 5; for Optimal Dose: i.p., dose levels 1.56 to 200 mg/kg tested, L1210/0, L1210/DDP and M5076
Procedure: as §1, §2
administered the drug on days 1, 5, and 9. […]

L1210/DDP cells [5] = experiment: In vivo antitumor activity, cisplatin-resistant L1210/DDP (Example 6, Table 11); design: species or system male BDF1 mice; conditions: L1210/DDP i.p.; drug i.p. days 1, 5, 9; median survival; optimal dose (mg/kg/inj): 12: 25; Cisplatin: 5
Procedure: as §1, §2, §3, §4, §5, §6

L1210/DDP cells [6] = experiment: MTT cytotoxicity, cisplatin-resistant L1210/DDP (Example 5, Table 10); format: cell-based, murine; conditions: 72 hr (3 days) continuous exposure
[7] = Renal and hematological toxicity, single i.p. dose (Table 8)
[8] = L1210/0 i.p., BDF1 mice, drug i.p. days 1, 5, 9

SMILES: N.N.[Cl][Pt][Cl] [Cis-platin, cis-diaminedichloroplatinum(II), reference compound]
- TGD (tumor growth delay) at optimal dose (M5076 reticulosarcoma): 16.0 days
- MTD (Maximum Tolerated Dose) (Murine Leukemia L1210/0; [8]): 5.0 mg/kg/injection
- % T/C (mean survival time of treated/mean survival time of control) × 100 (Murine Leukemia L1210/0; [8]): 218%
- IC50 (L1210/0 cells [1]): 0.23 µM
- effectiveness against murine versus human cells (in words) (L1210/0 cells [1]): more effective against murine than human cells
- MTD (Maximum Tolerated Dose) (Murine Leukemia 1210/DDP): 5.0 mg/kg/injection
- % T/C (mean survival time of treated/mean survival time of control) × 100 (Murine Leukemia 1210/DDP): 100%
- antitumor activity in vivo against L1210/DACH (in words) [2]: minimally sensitive to cis-platin
- MTD (Maximum Tolerated Dose) [2]: 5.0 mg/kg/injection
- % T/C (mean survival time of treated/mean survival time of control) × 100 [2]: 127%
- IC50 (L1210/0 cells [3]): 0.2 µM
- MTD (Maximum Tolerated Dose) (M5076 Tumor Model): 5.0 mg/kg/injection
- TGD (Tumor Growth Delay) (M5076 Tumor Model): 23.1
- IC50 (A2780 cells): 0.36 µM
- IC50 (L1210/DACH cells): 1.91 µM
- % T/C at optimal dose (L1210/0 cells [4]): 218%
- Optimal Dose (L1210/0 cells [4]): 5 mg/kg/inj
- % T/C at optimal dose (L1210/DDP cells [5]): 110%
- IC50 (L1210/DDP cells [6]): 32.8 µM

SMILES: CC(=O)[O][Pt]([Cl])([Cl])[O]C(C)=O.N[C@@H]1CCCC[C@H]1N [Compound 12, (R,R-1,2-DACH)PtCl2 trans(acetate)2]
- TGD (tumor growth delay) at optimal dose (M5076 reticulosarcoma): 18.3 days
- IC50 (L1210/0 cells [3]): 0.22 µM
- IC50 (L1210/DACH cells): 2.3 µM
- % T/C at optimal dose (L1210/0 cells [4]): 276%
- Optimal Dose (L1210/0 cells [4]): 25 mg/kg/inj
- % T/C at optimal dose (L1210/DDP cells [5]): 144%
- IC50 (L1210/DDP cells [6]): 0.7 µM

SMILES: CC(=O)[O][Pt]([Cl])([Cl])[O]C(C)=O.N[C@H]1CCCC[C@@H]1N [Compound 13, (S,S-1,2-DACH)PtCl2 trans-(acetate)2]
- IC50 (L1210/0 cells [3]): 0.88 µM
- IC50 (L1210/DACH cells): 4.2 µM
- % T/C at optimal dose (L1210/0 cells [4]): 265%
- Optimal Dose (L1210/0 cells [4]): 25 mg/kg/inj
- IC50 (L1210/DDP cells [6]): 7 µM

SMILES: CC(=O)[O][Pt]([Cl])([Cl])[O]C(C)=O.NC1CCCCC1N [Compound 14, (cis-1,2-DACH)PtCl2 trans(acetate)2]
- IC50 (L1210/0 cells [3]): 3 µM
- IC50 (L1210/DACH cells): 20.9 µM
- % T/C at optimal dose (L1210/0 cells [4]): 171%
- Optimal Dose (L1210/0 cells [4]): 25 mg/kg/inj
- IC50 (L1210/DDP cells [6]): 115 µM

SMILES: N[C@@H]1CCCC[C@H]1N.O=C([O][Pt]([Cl])([Cl])[O]C(=O)C(F)(F)F)C(F)(F)F [Compound 15, (R,R-1,2-DACH)PtCl2 trans(trifluoroacetate)2]
- IC50 (L1210/0 cells [3]): 0.1 µM
- IC50 (L1210/DACH cells): 1.72 µM
- % T/C at optimal dose (L1210/0 cells [4]): 241%
- Optimal Dose (L1210/0 cells [4]): 12.5 mg/kg/inj
- IC50 (L1210/DDP cells [6]): 0.85 µM

SMILES: N[C@@H]1CCCC[C@H]1N.[Cl][Pt+2]([Cl])([Cl])[Cl] [Tetraplatin, reference compound]
- antitumor activity in vivo against L1210/0 (in words) (Murine Leukemia L1210/0; L1210/0): active
- MTD (Maximum Tolerated Dose) (Murine Leukemia L1210/0; [8]): 3.1 mg/kg/injection
- % T/C (mean survival time of treated/mean survival time of control) × 100 (Murine Leukemia L1210/0; [8]): 310%
- long term survivors/no. tested (Murine Leukemia L1210/0; L1210/0 i.p., BDF1 mice, drug i.p. days 1, 5, 9, figures in parenthesis): 2/5
- IC50 (L1210/0 cells [1]): 0.11 µM
- potency relative to cis-platin (L1210/0 cells [1]; L1210/0 and A2780 tumor lines, more potent than cis-platin): 2-3 fold
- effectiveness against murine versus human cells (in words) (L1210/0 cells [1]): more effective against murine than human cells
- antitumor activity in vivo against L1210/DDP (in words) (Murine Leukemia 1210/DDP; L1210/DDP): active
- MTD (Maximum Tolerated Dose) (Murine Leukemia 1210/DDP): 3.1 mg/kg/injection
- % T/C (mean survival time of treated/mean survival time of control) × 100 (Murine Leukemia 1210/DDP): 143%
- antitumor activity in vivo against L1210/DACH (in words) [2]: resistant to tetraplatin
- MTD (Maximum Tolerated Dose) [2]: 3.1 mg/kg/injection
- % T/C (mean survival time of treated/mean survival time of control) × 100 [2]: 89%
- IC50 (L1210/0 cells [3]): 0.11 µM
- antitumor properties against M5076 (in words) (M5076 Tumor Model; M5076): the least active
- MTD (Maximum Tolerated Dose) (M5076 Tumor Model): 3.1 mg/kg/injection
- TGD (Tumor Growth Delay) (M5076 Tumor Model): 11.8
- IC50 (A2780 cells): 0.2 µM
- IC50 (L1210/DACH cells): 5.3 µM
- BUN d.5 ([7]; blood urea nitrogen, single i.p. dose (mg/kg): 1,4-DACH-Pt^II CBDCA 300, 1,4-DACH-Pt^IV Cl4 8.0, Tetraplatin 8.0, Cis-platin 12.0, Carboplatin 150, saline control 20.9): 17.2 mg %
- Survivors on d.14 ([7]; single i.p. dose (mg/kg): 1,4-DACH-Pt^II CBDCA 300, 1,4-DACH-Pt^IV Cl4 8.0, Tetraplatin 8.0, Cis-platin 12.0, Carboplatin 150): 5/5
- Body Wt. on d.5 ([7]; single i.p. dose (mg/kg): 1,4-DACH-Pt^II CBDCA 300, 1,4-DACH-Pt^IV Cl4 8.0, Tetraplatin 8.0, Cis-platin 12.0, Carboplatin 150, mean, S.D. less than 20%): 94 % on control
- myelotoxicity / myelosuppression (in words) ([7]; single i.p. dose, leucopenia): myelosuppressive
- IC50 (L1210/DDP cells [6]): 0.44 µM
